From ChEMBL document CHEMBL5291721, “A preclinical secondary pharmacology resource illuminates target-adverse drug reaction associations of marketed drugs” (Nat Commun, 2023) come the findings set out here.

Assay [1] concerns the target T1, Alpha-2C adrenergic receptor (Homo sapiens, UniProt P18825).
T1 sequence (P18825 whole entry): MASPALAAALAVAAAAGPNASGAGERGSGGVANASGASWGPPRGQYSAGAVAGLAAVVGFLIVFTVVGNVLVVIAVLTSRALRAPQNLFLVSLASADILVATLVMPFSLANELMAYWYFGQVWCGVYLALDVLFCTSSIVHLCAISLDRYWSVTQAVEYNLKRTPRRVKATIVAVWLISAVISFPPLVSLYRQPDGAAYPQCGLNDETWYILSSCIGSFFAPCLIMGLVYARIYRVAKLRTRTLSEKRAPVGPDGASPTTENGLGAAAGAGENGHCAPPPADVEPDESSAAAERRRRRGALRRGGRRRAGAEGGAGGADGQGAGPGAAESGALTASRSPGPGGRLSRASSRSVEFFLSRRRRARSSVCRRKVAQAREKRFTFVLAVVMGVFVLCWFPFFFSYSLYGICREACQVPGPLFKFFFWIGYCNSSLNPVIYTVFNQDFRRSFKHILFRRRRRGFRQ
The format is functional.

In the next assay the target is Acetylcholinesterase (Homo sapiens, UniProt P22303). In kind it is functional.
Note: assay procedure not described here.

Chain of Acetylcholinesterase (P22303 whole entry): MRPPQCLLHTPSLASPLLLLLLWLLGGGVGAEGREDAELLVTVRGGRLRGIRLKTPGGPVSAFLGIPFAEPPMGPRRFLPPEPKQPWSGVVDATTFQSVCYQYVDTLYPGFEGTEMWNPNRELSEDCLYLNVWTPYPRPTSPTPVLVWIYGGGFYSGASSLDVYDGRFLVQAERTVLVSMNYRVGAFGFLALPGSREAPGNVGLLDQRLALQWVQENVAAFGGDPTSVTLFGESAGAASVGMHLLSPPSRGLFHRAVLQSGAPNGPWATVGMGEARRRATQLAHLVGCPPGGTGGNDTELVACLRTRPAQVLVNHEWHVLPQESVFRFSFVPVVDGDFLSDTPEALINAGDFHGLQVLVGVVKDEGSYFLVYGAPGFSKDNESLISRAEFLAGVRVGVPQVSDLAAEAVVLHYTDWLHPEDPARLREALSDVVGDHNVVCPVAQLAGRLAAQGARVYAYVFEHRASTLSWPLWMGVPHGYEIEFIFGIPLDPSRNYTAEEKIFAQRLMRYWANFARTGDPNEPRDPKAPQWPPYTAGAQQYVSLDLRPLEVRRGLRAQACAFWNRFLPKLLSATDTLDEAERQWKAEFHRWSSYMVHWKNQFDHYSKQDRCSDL

As for `Cc1[nH]cnc1CN1CCc2c(c3ccccc3n2C)C1=O` [ALOSETRON], the AC50 in assay [1] came to 9.3 µM.

At Acetylcholinesterase, `C=CC(=O)N1CCC[C@@H](n2nc(-c3ccc(Oc4ccccc4)cc3)c3c(N)ncnc32)C1` [IBRUTINIB] had a half-maximal activity concentration (AC50) above 30 µM.

The compound `CN1C[C@H](CNC(=O)OCc2ccccc2)C[C@@H]2c3cccc4c3c(cn4C)C[C@H]21` [METERGOLINE] yielded an AC50 at Acetylcholinesterase of 1.1 µM.

For orientation: AC50 means the concentration giving half of the maximal activity seen. Read a low AC50 as activity at low concentration.
